Legend:
Assay type in all cases: physicochemical
[1] = Measurement of phase transition temperature (polarizing optical microscope, heated 30° C. to 300° C. and cooled)
Protocol: 10 mg of the polymerizable liquid crystal compound (the polymerizable liquid crystal compounds 1 and 2 obtained in Examples 1 and 2, and a polymerizable liquid crystal compound shown by the following formula (3) (“LC242” manufactured by BASF) (Comparative Example 1) (hereinafter referred to as “polymerizable liquid crystal compound 3”)) was weighed, and placed between two glass substrates provided with a rubbed polyimide alignment film.
The substrates were heated from 30° C. to 300° C. on a hot plate, and then cooled to 30° C. A change in structure during a change in temperature was observed using a polarizing optical microscope (“ECLIPSE LV100POL” manufactured by Nikon Corporation) to determine the phase transition temperature.
In Table 1, “C” indicates “Crystal”, “N” indicates “Nematic”, and “I” indicates “Isotropic”.

[2] = Mutual solubility at 23° C. by naked eye observation when forming the cured film; set-up: key: A case where turbidity was not observed was evaluated as “Good”; a case where turbidity was observed was evaluated as “Bad”; conditions: naked eye observation of turbidity
Protocol: 100 parts of the polymerizable liquid crystal compound (1 to 3) was dissolved in 153 parts of cyclopentanone. After the addition of 3.3 parts of a photoinitiator (“Irgacure 379” manufactured by Ciba Specialty Chemicals Co., Ltd.), 6 parts of a polymerizable chiral compound (compound shown by the formula (X)), and 11.6 parts of a surfactant (“KH-40” manufactured by AGC Seimi Chemical Co., Ltd.; 1 wt % cyclopentanone solution), the components were homogenously dissolved to prepare a polymerizable liquid crystal composition solution.
When forming the cured film of the compound, the mutual solubility of the compound at 23° C. was evaluated by naked eye observation. A case where turbidity was not observed was evaluated as “Good”, and a case where turbidity was observed was evaluated as “Bad”.

[3] = Solubility in cyclopentanone at 60° C., 40 wt % solution; set-up: key: a case where the compound was dissolved in cyclopentanone is indicated by “Good”; a case where the compound was not dissolved in cyclopentanone is indicated by “Bad”; conditions: compound concentration 40 wt %
Protocol: The solubility of the compound at 60° C. was evaluated when preparing a solution having a compound concentration of 40 wt %. In Table 1, a case where the compound was dissolved in cyclopentanone is indicated by “Good”, and a case where the compound was not dissolved in cyclopentanone is indicated by “Bad”.

[4] = Measurement of optical anisotropy (value Δn) of cured polymer film; conditions: cured polymer film 4 μm, 546 nm, Δn=Re/d
Protocol: 100 parts of the polymerizable liquid crystal compound (1 to 3) was dissolved in 233 parts of cyclopentanone. 2.7 parts of a photoinitiator (“Irgacure 907” manufactured by Ciba Specialty Chemicals Co., Ltd.) was homogenously dissolved in the solution. The resulting solution was applied to a glass substrate provided with a rubbed polyimide alignment film using a bar coater (“SA-203” manufactured by Tester Sangyo Co., Ltd., Rod No. 4, shaft diameter: 12.7 mm). After drying the resulting film at 100° C. for 5 minutes on a hot plate, ultraviolet rays (1000 mJ/cm^2) were applied to the film from a mercury lamp to obtain a cured polymer film having a thickness of 4 μm.
The extinction position (θ) of the cured film was measured using an optical microscope (“ECLIPSE E600POL (transmission/reflection type)” manufactured by Nikon Corporation, equipped with a sensitive tint plate, a λ/4 wave plate, a Sénarmont compensator, and a GIF filter (546 nm). The retardation (Re) was calculated by “Re=λ(546 nm)×θ/180”. The value Δn was calculated by “Δn=Re/d” (where, d is the thickness of the liquid crystal layer). The calculation results are shown in Table 1.

Question: For `C=CC(=O)OCCCCOC(=O)Oc1ccc(C(=O)Oc2ccc(OC(=O)c3ccc(OC(=O)OCCCCOC(=O)C=C)cc3)c(C)c2)cc1` [Polymerizable liquid crystal compound 3], which “Liquid crystallinity temperature range” value ([1]; heated from 30° C. to 300° C., then cooled to 30° C., between glass substrates with rubbed polyimide alignment film) is on record?
Answer: 63 °C

Question: What about the “liquid crystallinity temperature range (in words)” value ([1]; summary of Table 1) of the same compound?
Answer: liquid crystallinity within a narrow temperature range

Question: And the Mutual solubility [2]?
Answer: Good

Question: And the Solubility [3]?
Answer: Good

Question: What about the Δn [4] of the same compound?
Answer: 0.142

— patent US8454857B2, “Polymerizable liquid crystal compounds, polymerizable liquid crystal compositions, liquid crystalline polymers and optically anisotropic materials” (Zeon Corporation, priority 2008, dated 2013)
